BindingDB's records for doi:10.1111/j.1749-6632.1998.tb10185.x (Albany Medical College, 1998)
Values joined by “and” are separate entries in the source; they are usually repeats but may differ in a detail not shown here. Equal entries are not always repeated.

biological target: T1, 5-hydroxytryptamine receptor 2C (Rattus norvegicus, UniProt P08909)
T1 sequence (P08909 whole entry): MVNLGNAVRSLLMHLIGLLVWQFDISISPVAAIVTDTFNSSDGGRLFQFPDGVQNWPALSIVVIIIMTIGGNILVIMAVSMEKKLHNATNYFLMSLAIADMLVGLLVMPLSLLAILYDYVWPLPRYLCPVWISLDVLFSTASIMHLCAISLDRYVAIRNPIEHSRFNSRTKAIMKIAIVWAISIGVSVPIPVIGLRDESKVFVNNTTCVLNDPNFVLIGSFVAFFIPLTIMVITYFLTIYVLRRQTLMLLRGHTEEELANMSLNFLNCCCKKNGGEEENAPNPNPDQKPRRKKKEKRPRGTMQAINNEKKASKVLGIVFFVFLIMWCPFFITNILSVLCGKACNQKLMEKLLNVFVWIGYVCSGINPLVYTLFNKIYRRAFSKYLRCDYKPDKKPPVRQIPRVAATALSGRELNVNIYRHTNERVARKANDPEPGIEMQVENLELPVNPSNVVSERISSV

| Compound | Ki |
| --- | --- |
| CC[C@@H](CO)NC(=O)[C@@H]1C=C2c3cccc4c3c(cn4C)C[C@H]2N(C)C1 | 0.8 nM and 1 nM |
| c1ccc2nc(N3CCNCC3)ccc2c1 [2-Piperazin-1-yl-quinoline (Quipazine)] | 160 nM and 1340 nM |
| O=C(c1ccc(F)cc1)C1CCN(CCn2c(=O)[nH]c3ccccc3c2=O)CC1 [3-(2-{4-[(4-fluorophenyl)carbonyl]piperidin-1-yl}ethyl)-1,2,3,4-tetrahydroquinazoline-2,4-dione] | 103 nM and 94 nM |
| NCCc1c[nH]c2ccc(C(N)=O)cc12 [[3H]-5-carboxamidotryptamine] | 5810 nM |
